Data taken from patent US4269940A, “Microbiological alkane oxidation process” (priority 1979, dated 1981).
Where two headings read alike, the source gives them in different places.

Assays:
[1] = system: secondary alcohol dehydrogenase (SADH); assay: Inhibition of purified secondary alcohol dehydrogenase (SADH); assay type: biochemical, Pseudomonas sp. ATCC 21439
Protocol: (§1) Secondary alcohol dehydrogenase (SADH) from an obligate methanol utilizer, Pseudomonas sp. ATCC 21439 was purified as follows. […] 0.05 M sodium phosphate buffer, pH 7.0 with 0.5mM dithiothretol (buffer A) and were disrupted sonically (5×1 min.). The crude extract was separated by centrifugation. The crude extract was heat-treated at 50° C. in a water bath for 10 minutes. The resulting precipitate was removed by centrifugation. To the supernatant solution, 25 ml of protamine sulfate solution (2% solution in 0.1 M Tris base) was added dropwise with continuous stirring. After standing for 30 minutes, the extract was centrifuged. The supernatant solution was fractionated with solid ammonium sulfate. […] This DEAE-cellulose eluate was concentrated by ammonium sulfate fractionation. Material precipitating between 30 and 50% ammonium sulfate saturation was collected by centrifugation and dialyzed overnight against A. This fraction was further washed and filtered through an Amicon unit with XM 50 membrane. The concentrated fraction (6 ml) inside the Amicon unit was applied to an Affi-Gel Blue column (0.8 cm ×18 cm) which had been equilibrated with buffer A for affinity chromatography. The column was washed overnight with buffer A (0.18 ml./min.) and then was eluted with buffer A containing 5 mM NAD. Each 1 ml. fraction was collected.
(§2) The purified secondary alcohol dehydrogenase enzyme (SADH) may be used directly for converting C3 -C6 secondary alcohols to the corresponding methyl ketones by the procedures described above; however, a source of NAD^+ must be added to the reaction medium. One can determine the NAD-linked secondary alcohol dehydrogenase activity with a fluorescence spectrophotometer (Perkin Elmer, Model MPF 44A) by following the formation of reduced NAD (Ex 340 nm, Em 460 nm). The assay system (3 ml.) will typically contain: sodium phosphate buffer pH 7.0, 150 μmol; NAD 1.0 μmol; a given amount of enzyme preparation; and 20 μmol secondary alcohol. The reaction is started by the addition of secondary alcohol. One unit of SADH enzyme activity represents the reduction of one nmole NAD per minute.
The effect of metal-chelating agents and thioreagents on the activity of the purified SADH enzyme were studied. […] The possibility of ethanol or n-propanol as an inhibitor was studied.

[2] = system: purified secondary alcohol dehydrogenase; assay: Inhibition of purified yeast secondary alcohol dehydrogenase; assay type: biochemical, Pichia sp. NRRL Y-11,328; settings: purified yeast enzyme
Protocol: (§3) Large scale cultures of Pichia sp. NRRL Y-11,328 were grown with aeration at 30° C. in a 14-liter New Brunswick f fermentor in a mineral salt medium containing methanol (0.4%, v/v) as the sole carbon source. The cells (200 g., wet weight) were suspended in 50 mm sodium phosphate buffer, pH 7.0, containing 1 mM dithiothreitol (buffer A), and crude extracts were prepared as described previously. To the crude extracts, 18 ml. of protamine sulfate solution [2% solution in 0.1 M tris (hydroxymethyl) aminomethane (tris) base] was added dropwise with continuous stirring. After standing for 30 min., the extracts were centrifuged at 20,000 x g. for 60 min. The supernatant solution was fractioned with solid ammonium sulfate. Extracts were brought to 50% of saturation with respect to ammonium sulfate by addition of 313 g. of the salt per liter of extract. Precipitated proteins was removed by centrifugation, and 137 g. of ammonium sulfate was added per liter of the supernatant liquid to bring it to 70% of saturation. Material precipitating between 50 and 70% of saturation was collected by centrifugation and dissolved in buffer A. This preparation was dialyzed overnight against buffer A, and the dialyzed material was applied to a DEAE-cellulose column (5×40 cm) that had been equilibrated with buffer A. The sample was washed with 200 ml. of buffer A and eluted with 2 liters of buffer A that contained NaCl in a linear gradient running from a concentration of 0 to 0.5 M. Fractions of 15 ml. were collected. Fractions containing secondary alcohol dehydrogenase activity were pooled and were termed DEAE-cellulose eluate. The DEAE-cellulose eluate was concentrated by ammonium sulfate fractionation.
(§4) Secondary alcohol dehydrogenase activity was measured spectrophotometrically at 340 nm with a NAD^+ as an electron acceptor. The reaction mixture, in a total 3.0 ml., contained 50 mM phosphate buffer, pH 8.0, 5μmoles NAD^+, crude extracts, and substrate. The reactions were started by addition of 100 μof 0.1 M substrate and the rate of NAD^+ reduction was measured. Protein concentration was determined by the method of Lowry et al.
Various primary alcohols not oxidized by secondary alcohol dehydrogenase were tested as potential inhibitors of enzyme activity.

[3] = system: purified secondary alcohol dehydrogenase; assay: Substrate and electron acceptor specificity of purified yeast secondary alcohol dehydrogenase; assay type: biochemical, Pichia sp. NRRL Y-11,328; settings: for Oxidation by the purified yeast enzyme (in words): examined spectrophotometrically
Protocol: as §3, §4
The substrate specificity of the purified secondary alcohol dehydrogenase was examined spectrophotometrically.

[4] = system: P(40) fraction of Methylosinus sp. (CRL-15, NRRL B-11,202); assay: Effect of inhibitors on propylene epoxidation and methane hydroxylation by P(40) fraction (Table XI); assay type: biochemical; settings: inhibitor 10^-3 M
Protocol: The oxidation of methane and propylene by particulate [(P)40 and (P)80] fractions and soluble [S(80)] fraction was measured at 30° C. by estimating the production of methanol and propylene oxide, respectively. The reaction mixtures contained in 1.0 ml: 150 mM potassium phosphate buffer, pH 7.0 containing 5 mM MgC2, 0.6 ml; 10 μmoles NADH, and cellular fraction.
Reaction mixtures were contained in 10 ml vials at 4° C. Vials were sealed with rubber caps. The gaseous phase in the vials was removed using vacuum and then was replaced with a gas mixture of methane or propylene and oxygen at a 1:1, v/v ratio. Oxidation of other gaseous n-alkanes and n-alkenes was examined as described above. For liquid substrates, 10 μ of substrate was used directly. Vials were then incubated at 30° C. on a rotary shaker at 200 RPM.
The products of epoxidation of n-alkenes and hydroxylation of n-alkanes were assayed by flame ionization gas chromatography using a stainless steel column (12'×1/8") packed with 10% Carbowax 20M on 80/100 Chromosorb W and Porapak Q column. The column temperature was maintained isothermally at 120° C. The carrier gas flow rate was 30 ml/min. of helium. The various products were identified by retention time comparisons and co-chromatography with authentic standards.
It has been reported that the oxidation of methane by cell suspensions of methane-utilizing bacteria was inhibited by various metal-binding or metal-chelating agents (Patel et al., J. Bacteriol. 126: 1017-1019 (1976)). […] (CRL-15, NRRL B-11,202) was examined.

[5] = system: cell suspensions of the strains of C1-utilizers tested; assay: Production of methyl ketones from secondary alcohols by cell suspensions of C1-utilizers (strains tested); assay type: cell-based; settings: for Inhibition of production of 2-butanone from 2-butanol: cell suspensions of the strains tested; for Rate of oxidation of secondary alcohols to methyl ketones: cell suspensions of C1-utilizers
Excerpt: The substrate specificity for the oxidation of C3 -C6 secondary alcohols by the strains of C1 -utilizers was studied.

[6] = system: cell-free particulate fractions derived from the methylotrophic microorganisms; assay: Inhibition of conversion of C3-C6 n-alkanes to sec. alcohols by cell-free particulate fractions; assay type: biochemical; settings: oxygen and NADH
Excerpt: The conditions for preparing the cell suspensions or the cell-free particulate fractions from methane-grown methylotroph microorganisms is the same as described above.

[7] = system: secondary alcohol dehydrogenase (SADH); assay: Substrate specificity and Michaelis constants of purified SADH; assay type: biochemical, Pseudomonas sp. ATCC 21439
Protocol: as §1, §2

[8] = inhibitor 1 mM, measured spectrofluorometrically

## O=C(O)c1cc[c]([Hg+])cc1.[OH-] [p-hydroxymercuribenzoate]
[1]; [8]
  % inhibition of SADH activity: 100%
[2]
  Inhibition of secondary alcohol dehydrogenase activity (in words): strongly inhibited

## [N-]=[N+]=[N-] [Sodium azide]
[1]; [8]
  % inhibition of SADH activity: 10%

## CO [methanol]
[3]
  Oxidation by the purified yeast enzyme (in words): not oxidized

## c1ccc(-c2ccccn2)nc1 [α,α-bipyridyl]
[4]
  % inhibition of methane-hydroxylating activity: 99%
  % inhibition of propylene-epoxidizing activity: 98%
[5]
  Inhibition of production of 2-butanone from 2-butanol: inhibited
[1]; [8]
  % inhibition of SADH activity: 70%
[6]
  Inhibition of conversion of C3-C6 n-alkanes to sec. alcohols (in words): inhibited

## CC(C)CO [isobutanol]
[7]
  Oxidation by purified SADH (in words): not oxidized

## [Co+2] [Co^++]
[1]; [8]
  % inhibition of SADH activity: 0%

## O=C(O)CI [iodoacetic acid]
[1]
  % inhibition of SADH activity: 0%

## OC1CCCCC1 [cyclohexanol]
[7]
  Oxidation by purified SADH (in words): oxidized at a lower rate

## C=O [formaldehyde]
[7]
  Oxidation by purified SADH (in words): not oxidized

## O=[N+]([O-])[O-].[Ag+] [silver nitrate]
[2]
  Inhibition of secondary alcohol dehydrogenase activity (in words): inhibited

## CCCCCC(C)O (stereo not drawn) [2-heptanol]
[5]
  Rate of oxidation of secondary alcohols to methyl ketones: much slower rate
[3]
  Oxidation by the purified yeast enzyme (in words): not oxidized

## O=S(=O)([O-])[O-].[Cu+2] [Cupric Sulfate]
[2]
  Inhibition of secondary alcohol dehydrogenase activity (in words): inhibited

## [Zn+2] [Zn^++]
[1]; [8]
  % inhibition of SADH activity: 0%

## CC(O)CO (stereo not drawn) [1,2-propandiol]
[3]
  Oxidation by the purified yeast enzyme (in words): not oxidized

## CC(O)CCO (stereo not drawn) [butane 1,3-diol]
[7]
  Oxidation by purified SADH (in words): oxidized at a lower rate
[3]
  Oxidation by the purified yeast enzyme (in words): not oxidized

## CCCCO [butan-1-ol]
[3]
  Oxidation by the purified yeast enzyme (in words): not oxidized

## NNC(N)=S [Thiosemicarbazide]
[4]
  % inhibition of methane-hydroxylating activity: 100%
  % inhibition of propylene-epoxidizing activity: 97%
[6]
  Inhibition of conversion of C3-C6 n-alkanes to sec. alcohols (in words): inhibited

## NC(N)=S [Thiourea]
[4]
  % inhibition of methane-hydroxylating activity: 98%
  % inhibition of propylene-epoxidizing activity: 98%
[5]
  Inhibition of production of 2-butanone from 2-butanol: not inhibited
[1]; [8]
  % inhibition of SADH activity: 0%
[6]
  Inhibition of conversion of C3-C6 n-alkanes to sec. alcohols (in words): inhibited

## CCC(O)CO (stereo not drawn) [butane 1,2-diol]
[7]
  Oxidation by purified SADH (in words): not oxidized
[3]
  Oxidation by the purified yeast enzyme (in words): not oxidized

## CCCCCO [pentan-1-ol]
[3]
  Oxidation by the purified yeast enzyme (in words): not oxidized

## [Cu+2] [cupric]
[1]; [8]
  % inhibition of SADH activity: 25%

## O=C(O)CCC(=O)O [succinic acid]
[7]
  Oxidation by purified SADH (in words): not oxidized

## CC=O [acetaldehyde]
[7]
  Oxidation by purified SADH (in words): oxidized at a lower rate

## Oc1cccc2cccnc12 [8-Hydroxyquinoline]
[4]
  % inhibition of methane-hydroxylating activity: 80%
  % inhibition of propylene-epoxidizing activity: 75%
[6]
  Inhibition of conversion of C3-C6 n-alkanes to sec. alcohols (in words): inhibited

## [Fe+2] [ferrous]
[1]; [8]
  % inhibition of SADH activity: 50%

## CCC=O [propanal]
[7]
  Oxidation by purified SADH (in words): oxidized at a lower rate

## CCCCCCC(C)O (stereo not drawn) [2-octanol]
[3]
  Oxidation by the purified yeast enzyme (in words): not oxidized

## cytochrome c: cytochrome c tested as electron carrier [reference compound]
[3]; purified enzyme
  Function as electron acceptor/carrier for the purified yeast enzyme: could not act as electron carrier

## N#C[S][Hg][S]C#N [mercuric thiocyanate]
[2]
  Inhibition of secondary alcohol dehydrogenase activity (in words): inhibited

## CC(O)C(C)O (stereo not drawn) [butane 2,3-diol]
[7]
  Oxidation by purified SADH (in words): oxidized at a lower rate

## c1cnc2c(c1)ccc1cccnc12 [1,10-phenanthroline]
[4]
  % inhibition of methane-hydroxylating activity: 90%
  % inhibition of propylene-epoxidizing activity: 93%
[5]
  Inhibition of production of 2-butanone from 2-butanol: inhibited
[1]; [8]
  % inhibition of SADH activity: 95%
[2]
  Inhibition of secondary alcohol dehydrogenase activity (in words): strongly inhibited
[6]
  Inhibition of conversion of C3-C6 n-alkanes to sec. alcohols (in words): inhibited

## O=Cc1ccccc1 [benzaldehyde]
[7]
  Oxidation by purified SADH (in words): not oxidized

## [Fe+3] [ferric]
[1]; [8]
  % inhibition of SADH activity: 35%

## CCCO [n-propanol]
[3]
  Oxidation by the purified yeast enzyme (in words): not oxidized

## c1c[nH]cn1 [Imidazole]
[2]
  Inhibition of secondary alcohol dehydrogenase activity (in words): strongly inhibited

## [Mg+2] [Mg^++]
[1]; [8]
  % inhibition of SADH activity: 0%

## [Mn+2] [Mn^++]
[1]; [8]
  % inhibition of SADH activity: 0%

## CCO [ethanol]
[3]
  Oxidation by the purified yeast enzyme (in words): not oxidized

## CCCC(C)O (stereo not drawn) [2-pentanol]
[5]
  Rate of oxidation of secondary alcohols to methyl ketones: much slower rate
[7]
  Oxidation by purified SADH (in words): oxidized at a lower rate
[3]
  Oxidation by the purified yeast enzyme (in words): catalyzed the oxidation

## [Ni+2] [nickel]
[1]; [8]
  % inhibition of SADH activity: 20%

## O=C(O)c1cc(SSc2ccc([N+](=O)[O-])c(C(=O)O)c2)ccc1[N+](=O)[O-] [5,5'-dithiobis(2-nitrobenzoic acid)]
[1]; [8]
  % inhibition of SADH activity: 100%

## CCN1C(=O)C=CC1=O [N-ethylmalemide]
[1]; [8]
  % inhibition of SADH activity: 6%

## Oc1ccccc1 [phenol]
[7]
  Oxidation by purified SADH (in words): not oxidized

## CCCCC(C)O (stereo not drawn) [2-hexanol]
[5]
  Rate of oxidation of secondary alcohols to methyl ketones: much slower rate
[7]
  Oxidation by purified SADH (in words): oxidized at a lower rate
[3]
  Oxidation by the purified yeast enzyme (in words): catalyzed the oxidation
